{
  "source": "patent US20110027324A1",
  "about": "“O-DESMETHYL-V[…] TREATING MAJOR DEPRESSIVE DISORDER” (Wyeth LLC, priority 2007, published 2011)",
  "key": {"[1]": {"tested_on": "norepinephrine and serotonin uptake", "details": "Klamerus et al., J. Clin. Pharmacol. 32:716-724 (1992); cited from earlier work"}, "[2]": {"tested_on": "subjects with a primary diagnosis of MDD", "experiment": "MDD Study No. 2: efficacy evaluation, randomized double-blind placebo-controlled study", "format": "in vivo, human", "method": "This example describes the results of a second multicenter, randomized, double-blind, placebo-controlled, parallel-group study that was also designed to evaluate the efficacy and safety of 50 and 100 mg/day ODV for treating MDD.\nSubjects were male or female adults that met the same criteria as the subjects in Example 1. The planned enrollment was 450 subjects. A total of 565 subjects were screened for participation; 80 were screen failures and 485 were randomly assigned to treatment: 161 were assigned to receive placebo, 166 were assigned to receive ODV 50 mg/day; and 158 were assigned to receive ODV 100 mg/day. All 485 randomized subjects were included in the safety population (completed the prestudy period and took at least 1 dose of double-blind study drug). The intent-to-treat [ITT] efficacy population included 483 subjects, and the per-protocol [PP] efficacy population included 440 subjects. Completers for exposure (353 subjects) were defined as subjects who had at least 53 days of exposure to study drug.\nThe administration protocols for 50 or 100 mg/day and placebo groups were the same as in Example 1.\nThe primary and secondary outcomes were the same as in Example 1 as were the statistical methods. P-values of less than 0.05 are shown in bold."}, "[3]": {"tested_on": "subjects with a primary diagnosis of MDD", "experiment": "MDD Study No. 1: efficacy evaluation, randomized double-blind placebo-controlled 8-week study", "format": "in vivo, human", "method": "This example describes the results of a multicenter, randomized, double-blind, placebo-controlled, parallel-group study that was designed to evaluate the efficacy and safety of 50 and 100 mg/day ODV for treating MDD.\nSubjects were male or female outpatients at least 18 years of age who had depressive symptoms for at least 30 days before the screening visit, and a primary diagnosis of MDD based on the criteria in the Diagnostic and Statistical Manual of Mental Disorders, Fourth edition (DSM-IV), single or recurrent episode, without psychotic features. Minimum screening and baseline scores of 20 on the Hamilton Rating Scale for Depression, 17-item (HAM-D17), of 2 on item 1 (depressed mood) on the HAM-D17, and of 4 on the Clinical Global Impressions Scale-Severity (CGI-S) were also required.\nThe planned enrollment was 480 subjects. A total of 703 subjects were screened for participation; 229 were screen failures and 474 were randomly assigned to treatment: 159 were assigned to receive placebo, 158 were assigned to receive ODV 50 mg/day; and 157 were assigned to receive ODV 100 mg/day. Twenty-three (23) of these 474 subjects were considered “no-data subjects” (randomized to treatment without information as to treatment). […]\nThe primary outcome variable was the HAM-D17 total score. The key secondary outcome variable was the Clinical Global Impressions Scale-Improvement (CGI-D score. Other secondary efficacy variables included the CGI-S, the Montgomery and Asberg Depression Rating Scale (MADRS) score, the HAM-D6 (Bech version: HAM-D17 items 1, 2, 7, 8, 10, and 13) score, the Covi Anxiety Scale total score, the remission rate (percentage of subjects with HAM-D17 scores of ≦7), response rates for the HAM-D17 (50% or greater change from baseline in the HAM-D17 total score), MADRS, and CGI-I, and the visual analog scale for pain intensity (VAS-PI). Self-administered health outcomes assessments were measured by the Sheehan Disability Scale (SDS) and the World Health Organization 5-Item Well-Being Index (WHO-5). […]"}, "[4]": {"tested_on": "subjects with a primary diagnosis of MDD", "experiment": "MDD Study No. 2: safety evaluation (AEs, DESS, laboratory)", "format": "in vivo, human", "details": "for subjects with AEs as reason for discontinuation: on-therapy period, placebo 3%", "method": "The safety of the two doses was determined using the same assessments as in Example 1. […] Headache was the only TPAE with an incidence≧5% in the placebo group.\nThe DESS checklist was used to evaluate symptoms that first occurred, or that worsened, during the taper period (the 7-day period after the end of the double-blind treatment period). During this 7-day period, doses of ODV were tapered to 0 mg for subjects in the 50 mg group, and to 50 mg for subjects in the 100 mg group. The DESS checklist was administered to 420 of the 423 subjects who had completed at least 53 days of on-therapy treatment."}, "[5]": {"details": "all subjects, 50 and 100 mg/day"}},
  "data": [
    {"molecule": "CN(C)CC(c1ccc(O)cc1)C1(O)CCCCC1", "note": "(centres unmarked) [ODV, 1-[2-(dimethylamino)-1-(4-phenol)ethyl]-cyclohexanol]", "values": [
      {"measurement": "inhibition of norepinephrine and serotonin uptake", "setting": "[1]", "result": "has been shown to inhibit norepinephrine and serotonin uptake"},
      {"measurement": "HAM-D17 total score, adjusted mean change from baseline", "setting": "[2]; 50 mg/day, FOT evaluation, ANCOVA LOCF, placebo −10.7", "result": "−13.2"},
      {"measurement": "HAM-D17 total score, adjusted mean change from baseline", "setting": "[2]; 50 mg/day, week 8, mixed effect model, placebo −11.5", "result": "−14.4"},
      {"measurement": "HAM-D17 total score, adjusted mean change from baseline", "setting": "[2]; 100 mg/day, FOT evaluation, ANCOVA LOCF, placebo −10.7", "result": "−13.7"},
      {"measurement": "HAM-D17 total score, adjusted mean change from baseline", "setting": "[2]; 100 mg/day, week 8, mixed effect model, placebo −11.5", "result": "−14.9"},
      {"measurement": "HAM-D17 total score, adjusted mean change from baseline", "setting": "[3]; 50 mg/day, FOT evaluation, ANCOVA LOCF, placebo −9.53", "result": "−11.5"},
      {"measurement": "HAM-D17 total score, adjusted mean change from baseline", "setting": "[3]; 50 mg/day, week 8, mixed-effects model, placebo −9.86", "result": "−12.40"},
      {"measurement": "HAM-D17 total score, adjusted mean change from baseline", "setting": "[3]; 100 mg/day, week 8, mixed-effects model, placebo −9.86", "result": "−11.88"},
      {"measurement": "incidence of nausea leading to discontinuation", "setting": "[4]; 50 mg group", "result": 1.2, "unit": "%"},
      {"measurement": "incidence of sweating leading to discontinuation", "setting": "[4]; 50 mg group", "result": 1.2, "unit": "%"},
      {"measurement": "incidence of vomiting leading to discontinuation", "setting": "[4]; 50 mg group", "result": 1.2, "unit": "%"},
      {"measurement": "most common (incidence≧5%) taper/poststudy-emergent AEs", "setting": "[4]; 50 mg group", "result": "headache, nausea, dizziness, and insomnia"},
      {"measurement": "subjects with clinically important elevated SGPT/ALT levels", "setting": "[4]; 50 mg group", "result": "another subject"},
      {"measurement": "p-value, mean DESS scores in comparison with placebo", "setting": "[4]; 50 mg group, during the 7-day taper period", "result": 0.001},
      {"measurement": "subjects with clinically important increased total cholesterol levels", "setting": "[4]; 50 mg group, number of subjects", "result": 1},
      {"measurement": "subjects with clinically important elevated SGOT/AST levels", "setting": "[4]; 50 mg group, number of subjects, placebo 1", "result": 1},
      {"measurement": "subjects with AEs as reason for discontinuation", "setting": "[4]; 50 mg group", "result": 5, "unit": "%"},
      {"measurement": "incidence of anorgasmia in men leading to discontinuation", "setting": "[4]; 100 mg group", "result": 2.1, "unit": "%"},
      {"measurement": "incidence of asthenia leading to discontinuation", "setting": "[4]; 100 mg group", "result": 1.3, "unit": "%"},
      {"measurement": "incidence of headache leading to discontinuation", "setting": "[4]; 100 mg group", "result": 1.3, "unit": "%"},
      {"measurement": "incidence of nausea leading to discontinuation", "setting": "[4]; 100 mg group", "result": 3.8, "unit": "%"},
      {"measurement": "most common (incidence≧5%) TPAEs", "setting": "[4]; 100 mg group", "result": "headache, nausea, depression, dizziness, and vertigo"},
      {"measurement": "subjects with AEs as reason for discontinuation", "setting": "[4]; 100 mg group", "result": 7, "unit": "%"},
      {"measurement": "p-value, mean DESS in comparison with placebo", "setting": "[4]; 100 mg group, week after the 7-day taper period", "result": 0.017},
      {"measurement": "SAEs during the on-therapy period", "setting": "[4]; [5]", "result": "None of the subjects had SAEs during the on-therapy period"},
      {"measurement": "deaths during the study", "setting": "[4]; [5]", "result": "No deaths occurred during this study"}
    ]}
  ]
}
